This passage reports IC50 results from US5981545A, “N-linked azabicyclic heterocycles useful for treating dementia” (Beecham Group p.l.c., priority 1989, dated 1999).

Assay [1] has as its target muscarinic receptors. Put plainly: Radio ligand binding, displacement of muscarinic agonist 3H-Oxotremorine-M (3H-OXO-M), rat cerebral cortex membranes. To be noted: 2 nM 3H-OXO-M, 2 mM magnesium chloride, tris pH 7.7, 37° C., 30 min. Further details: species or system Hooded Lister rats.
Assay [2] has as its target muscarinic receptors. The assay is described as follows: Radio ligand binding, displacement of muscarinic antagonist 3H-Quinuclidinyl Benzilate (3H-QNB), rat cerebral cortex membranes. Further details: species or system Hooded Lister rats. To be noted: 0.27 nM 3H-QNB, tris pH 7.7, 37° C., 30 min.

Where a name gives a salt, the structure may show the parent alone.

Take `c1nnn(C23CCCN(CC2)C3)n1` (stereo not shown) [E29, 5-(Tetrazol-2-yl)-1-azabicyclo[3.2.1]octane]: the values for the IC50 in assay [1] and in assay [2] were 0.022 µM and 12.8 µM, respectively.

Take `c1ncn(C23CCN(CC2)C3)n1` [E51, 4-(1,2,4-Triazol-1-yl)-1-azabicyclo[2.2.1]heptane oxalate salt]: the results for the IC50 in assay [1] and in assay [2] were 0.0165 µM and 65.2 µM, respectively.
